From patent US20250114460A1, “NOVEL PLK1 DEGRADATION INDUCING COMPOUND” (UPPTHERA, INC., priority 2021, published 2025)

What was measured:
Format in all cases: cell-based
NCI-H526 cell line = assay: Cell viability assay for H526 cell (EZ-Cytox); conditions: Homo sapiens, NCI-H526, 120 h; H526 cells, 5 days, 3000 nM to 0.46 nM
Summary of the method: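 Read-out was EZ-Cytox colorimetric absorbance at 450 nm, taken after brief plate shaking, with IC50 derived. Before reading, H526 cells had been cultured with test compound for 5 days.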

MRC-5 cell line = assay: Cell viability assay for MRC-5 cell line (EZ-Cytox); conditions: Homo sapiens, MRC5, 120 h; MRC-5 normal cell line, 5 days, 10000 nM to 1.52 nM; N.D. = no cytotoxicity until 10 μM; read-out: Activity: IC50 value of Exemplary Compound to MRC-5 cell line
Method: 4. Cell Viability Assay for MRC-5 Cell Line
(1) Culture of MRC-5 Cell Line
Passage of cultured cells was maintained within P15.
(2) Treatment of Compounds of the Present Invention
Then, it was cultured in 37° C.
(3) Cytotoxicity Experiment
CO2 incubator for 4 hours.

PLK1 = biological target: T1, PLK1 (Homo sapiens, UniProt P53350); assay: Luciferase assay for PLK1 in HeLa LgBit (Plk1-HiBit KI) cell line; conditions: 300 nM compound, luminescence after 9 hours
T1 construct: endogenous in cells; host or cells: HeLa LgBit (Plk1-HiBit KI): HeLa stably expressing LgBit, with a CRISPR/Cas9 knock-in of HiBit at the endogenous PLK1 locus
Summary of the method: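 Luminescence, followed in real time after adding compound at 300 nM and Endurazine substrate, is reported relative to DMSO-treated wells. Cells are a HeLa LgBit line with a Plk1-HiBit knock-in, synchronized by 2 mM thymidine for 24 h, released, and cultured 18 h before treatment.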

T1 sequence (P53350 whole entry): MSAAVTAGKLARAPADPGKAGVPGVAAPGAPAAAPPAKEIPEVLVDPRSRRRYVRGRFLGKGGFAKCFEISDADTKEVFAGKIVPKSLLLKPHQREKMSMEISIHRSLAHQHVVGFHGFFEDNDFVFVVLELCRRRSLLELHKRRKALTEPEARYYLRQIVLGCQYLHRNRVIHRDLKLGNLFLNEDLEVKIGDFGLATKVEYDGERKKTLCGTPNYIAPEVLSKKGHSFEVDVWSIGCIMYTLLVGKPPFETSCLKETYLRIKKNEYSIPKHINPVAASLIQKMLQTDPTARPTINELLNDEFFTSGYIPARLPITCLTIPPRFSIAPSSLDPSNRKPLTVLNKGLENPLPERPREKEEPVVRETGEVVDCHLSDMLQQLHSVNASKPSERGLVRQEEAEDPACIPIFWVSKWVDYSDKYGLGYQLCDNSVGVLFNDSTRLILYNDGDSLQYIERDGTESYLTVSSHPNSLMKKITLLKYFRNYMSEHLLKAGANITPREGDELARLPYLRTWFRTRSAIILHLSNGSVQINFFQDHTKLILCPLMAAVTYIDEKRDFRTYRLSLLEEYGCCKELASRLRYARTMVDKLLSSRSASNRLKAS

| Activity: ratio of the luminescense value of each Exemplary Compound treatment group to DMSO treatment group (PLK1) | Compound | IC50 (NCI-H526 cell line) [µM] | IC50 (MRC-5 cell line) [µM] |
| --- | --- | --- | --- |
| ++ (++<0.6) | COc1cc(C(=O)N[C@H]2CC[C@H](N(C)CC3CCN(c4ccc5c(c4)C(=O)N(C4CCC(=O)NC4=O)C5=O)CC3)CC2)ccc1Nc1ncc2c(n1)N(C(C)C)CC(F)(F)C(=O)N2C (stereo partly drawn) [Compound 153, 4-((7,7-difluoro-9-isopropyl-5-methyl-6-oxo-6,7,8,9-tetrahydro-5H-pyrimido[4,5-b][1,4]diazepin-2-yl)amino)-N-((1r,4r)-4-(((1-(2-(2,6-dioxopiperidin-3-yl)-1,3-dioxoisoindolin-5-yl)piperidin-4-yl)methyl)(methyl)amino)cyclohexyl)-3-methoxybenzamide] | < 0.05 | 15.8 |
| ++ (++<0.6) | COc1cc(C(=O)N[C@H]2CC[C@H](N(C)CCCOc3cccc4c3C(=O)N(C3CCC(=O)NC3=O)C4=O)CC2)ccc1Nc1ncc2c(n1)N(C1CCCC1)CC(F)(F)C(=O)N2C (stereo partly drawn) [Compound 15, 4-((9-cyclopentyl-7,7-difluoro-5-methyl-6-oxo-6,7,8,9-tetrahydro-5H-pyrimido[4,5-b][1,4]diazepin-2-yl)amino)-N-((1r,4r)-4-((3-((2-(2,6-dioxopiperidin-3-yl)-1,3-dioxoisoindolin-4-yl)oxy)propyl)(methyl)amino)cyclohexyl)-3-methoxybenzamide] | < 0.05 | 16.7 |
| ++ (++<0.6) | COc1cc(C(=O)NC2CCN(C3CC4(CCN(c5cccc6c5C(=O)N(C5CCC(=O)NC5=O)C6=O)CC4)C3)CC2)c(F)cc1Nc1ncc2c(n1)N(C1CCCC1)CC(F)(F)C(=O)N2C (stereo not drawn) [Compound 208, 4-((9-cyclopentyl-7,7-difluoro-5-methyl-6-oxo-6,7,8,9-tetrahydro-5H-pyrimido[4,5-b][1,4]diazepin-2-yl)amino)-N-(1-(7-(2-(2,6-dioxopiperidin-3-yl)-1,3-dioxoisoindolin-4-yl)-7-azaspiro[3.5]nonan-2-yl)piperidin-4-yl)-2-fluoro-5-methoxybenzamide] | < 0.1 | > 10 |
| ++ (++<0.6) | COc1cc(C(=O)NC2CCN(C(=O)CCCNc3cccc4c3CN(C3CCC(=O)NC3=O)C4=O)CC2)ccc1Nc1ncc2c(n1)N(C1CCCC1)CC(F)(F)C(=O)N2C (stereo not drawn) [Compound 26, 4-((9-cyclopentyl-7,7-difluoro-5-methyl-6-oxo-6,7,8,9-tetrahydro-5H-pyrimido[4,5-b][1,4]diazepin-2-yl)amino)-N-(1-(4-((2-(2,6-dioxopiperidin-3-yl)-1-oxoisoindolin-4-yl)amino)butanoyl)piperidin-4-yl)-3-methoxybenzamide] | < 0.05 | > 10 |
